Results on 13 compounds are retold here after patent US11739098B2 (BRISTOL-MYERS SQUIBB COMPANY, priority 2017, dated 2023).

Holding throughout (assay type): cell-based
For one experiment, the target named is T1, human TLR8 (Homo sapiens, UniProt Q9NR97).
T1 construct: host or cells: HEK-Blue cells (HEK293-derived reporter line)
T1 sequence (Q9NR97 27-1041): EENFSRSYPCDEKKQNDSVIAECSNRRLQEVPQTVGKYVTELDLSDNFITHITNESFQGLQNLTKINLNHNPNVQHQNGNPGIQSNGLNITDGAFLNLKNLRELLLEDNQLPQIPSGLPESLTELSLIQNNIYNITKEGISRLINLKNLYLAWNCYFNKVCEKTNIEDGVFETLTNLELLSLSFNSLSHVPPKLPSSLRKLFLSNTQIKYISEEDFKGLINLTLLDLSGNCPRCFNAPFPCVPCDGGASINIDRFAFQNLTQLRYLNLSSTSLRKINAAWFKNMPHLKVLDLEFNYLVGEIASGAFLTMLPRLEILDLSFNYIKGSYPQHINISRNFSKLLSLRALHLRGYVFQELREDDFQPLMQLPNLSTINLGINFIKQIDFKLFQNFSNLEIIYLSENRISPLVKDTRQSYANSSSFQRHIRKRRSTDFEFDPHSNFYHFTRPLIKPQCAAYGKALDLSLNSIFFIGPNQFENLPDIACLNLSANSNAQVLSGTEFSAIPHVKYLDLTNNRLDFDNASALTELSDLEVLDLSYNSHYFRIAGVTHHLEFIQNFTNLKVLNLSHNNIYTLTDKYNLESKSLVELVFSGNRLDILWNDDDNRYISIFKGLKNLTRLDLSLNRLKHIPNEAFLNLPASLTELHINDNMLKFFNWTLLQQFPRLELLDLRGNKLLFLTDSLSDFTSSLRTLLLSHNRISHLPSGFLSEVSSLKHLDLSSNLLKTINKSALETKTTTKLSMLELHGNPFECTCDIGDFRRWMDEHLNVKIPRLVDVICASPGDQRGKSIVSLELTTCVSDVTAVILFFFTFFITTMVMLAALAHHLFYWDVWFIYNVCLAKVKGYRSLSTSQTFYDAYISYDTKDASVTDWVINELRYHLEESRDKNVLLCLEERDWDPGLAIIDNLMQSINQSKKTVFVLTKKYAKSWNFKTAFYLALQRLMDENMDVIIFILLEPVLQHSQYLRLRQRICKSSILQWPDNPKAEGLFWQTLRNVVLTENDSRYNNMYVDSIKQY
Description: TLR8 inhibition reporter assay (HEK-Blue cells, SEAP reporter, R848 stimulation). The settings on record: HEK-Blue cells overexpressing human TLR8, SEAP reporter, R848 15.9 μM. As to the method:
(§1) TLR7/8/9 Inhibition Reporter Assays
(§2) HEK-Blue™-cells (Invivogen) overexpressing human TLR7, TLR8 or TLR9 receptors were used for screening inhibitors of these receptors using an inducible SEAP (secreted embryonic alkaline phosphatase) reporter gene under the control of the IFN-β minimal promoter fused to five NF-κB and AP-1-binding sites. Briefly, cells are seeded into Greiner 384 well plates (15000 cells per well for TLR7, 20,000 for TLR8 and 25,000 for TLR9) and then treated with test compounds in DMSO to yield a final dose response concentration range of 0.05 nM-50 μM. After a 30 minute compound pre-treatment at room temperature, the cells are then stimulated with a TLR7 ligand (gardiquimod at a final concentration of 7.5 μM), TLR8 ligand (R848 at a final concentration of 15.9 μM) or TLR9 ligand (ODN2006 at a final concentration of 5 nM) to activate NF-κB and AP-1 which induce the production of SLAP After a 22 hour incubation at […], SLAP levels are determined with the addition of HLK-Blue™ Detection reagent (Invivogen), a cell culture medium that allows for detection of SLAP, according to manufacturer's specifications. The percent inhibition is determined as the […] in the HEK-Blue signal present in wells treated with agonist plus DMSO alone compared to wells treated with a known inhibitor.
(Reporter assays use an easily measured gene product as a stand-in for the process of interest.)

A further experiment has as its target T2, human TLR7 (Homo sapiens, UniProt Q9NYK1).
T2 construct: host or cells: HEK-Blue cells (HEK293-derived reporter line)
T2 sequence (Q9NYK1 27-1049): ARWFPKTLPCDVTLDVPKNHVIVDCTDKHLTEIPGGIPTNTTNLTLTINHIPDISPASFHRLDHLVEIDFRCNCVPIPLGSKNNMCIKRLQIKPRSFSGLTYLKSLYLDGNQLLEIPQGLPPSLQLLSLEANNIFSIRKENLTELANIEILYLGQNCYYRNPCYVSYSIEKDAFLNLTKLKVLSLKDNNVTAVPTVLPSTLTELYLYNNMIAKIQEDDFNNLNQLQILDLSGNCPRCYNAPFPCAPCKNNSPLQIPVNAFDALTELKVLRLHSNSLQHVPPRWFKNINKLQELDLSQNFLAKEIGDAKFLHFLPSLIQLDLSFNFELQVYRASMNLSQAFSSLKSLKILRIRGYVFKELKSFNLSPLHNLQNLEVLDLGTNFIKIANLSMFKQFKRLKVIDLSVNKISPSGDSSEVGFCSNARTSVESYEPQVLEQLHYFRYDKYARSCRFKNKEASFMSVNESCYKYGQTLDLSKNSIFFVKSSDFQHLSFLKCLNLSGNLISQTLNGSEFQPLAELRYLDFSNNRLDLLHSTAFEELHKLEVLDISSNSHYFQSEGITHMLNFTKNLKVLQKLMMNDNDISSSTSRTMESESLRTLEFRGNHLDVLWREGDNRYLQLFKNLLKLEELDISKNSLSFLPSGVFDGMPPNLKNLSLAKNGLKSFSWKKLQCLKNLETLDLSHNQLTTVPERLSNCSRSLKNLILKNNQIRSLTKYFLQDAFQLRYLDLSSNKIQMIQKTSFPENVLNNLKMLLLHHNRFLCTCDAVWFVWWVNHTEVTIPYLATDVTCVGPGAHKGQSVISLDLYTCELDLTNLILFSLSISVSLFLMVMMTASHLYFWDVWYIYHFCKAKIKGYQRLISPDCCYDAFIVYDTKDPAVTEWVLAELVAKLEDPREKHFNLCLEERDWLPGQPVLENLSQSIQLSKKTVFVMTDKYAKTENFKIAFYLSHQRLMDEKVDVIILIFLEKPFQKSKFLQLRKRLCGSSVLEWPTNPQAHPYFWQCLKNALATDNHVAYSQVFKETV
Description: TLR7 inhibition reporter assay (HEK-Blue cells, SEAP reporter, gardiquimod stimulation). The settings on record: HEK-Blue cells overexpressing human TLR7, SEAP reporter, gardiquimod 7.5 μM. As to the method:
as §1, §2

A further experiment addresses T3, human TLR9 (Homo sapiens, UniProt Q9NR96).
T3 construct: host or cells: HEK-Blue cells (HEK293-derived reporter line)
T3 sequence (Q9NR96 26-1032): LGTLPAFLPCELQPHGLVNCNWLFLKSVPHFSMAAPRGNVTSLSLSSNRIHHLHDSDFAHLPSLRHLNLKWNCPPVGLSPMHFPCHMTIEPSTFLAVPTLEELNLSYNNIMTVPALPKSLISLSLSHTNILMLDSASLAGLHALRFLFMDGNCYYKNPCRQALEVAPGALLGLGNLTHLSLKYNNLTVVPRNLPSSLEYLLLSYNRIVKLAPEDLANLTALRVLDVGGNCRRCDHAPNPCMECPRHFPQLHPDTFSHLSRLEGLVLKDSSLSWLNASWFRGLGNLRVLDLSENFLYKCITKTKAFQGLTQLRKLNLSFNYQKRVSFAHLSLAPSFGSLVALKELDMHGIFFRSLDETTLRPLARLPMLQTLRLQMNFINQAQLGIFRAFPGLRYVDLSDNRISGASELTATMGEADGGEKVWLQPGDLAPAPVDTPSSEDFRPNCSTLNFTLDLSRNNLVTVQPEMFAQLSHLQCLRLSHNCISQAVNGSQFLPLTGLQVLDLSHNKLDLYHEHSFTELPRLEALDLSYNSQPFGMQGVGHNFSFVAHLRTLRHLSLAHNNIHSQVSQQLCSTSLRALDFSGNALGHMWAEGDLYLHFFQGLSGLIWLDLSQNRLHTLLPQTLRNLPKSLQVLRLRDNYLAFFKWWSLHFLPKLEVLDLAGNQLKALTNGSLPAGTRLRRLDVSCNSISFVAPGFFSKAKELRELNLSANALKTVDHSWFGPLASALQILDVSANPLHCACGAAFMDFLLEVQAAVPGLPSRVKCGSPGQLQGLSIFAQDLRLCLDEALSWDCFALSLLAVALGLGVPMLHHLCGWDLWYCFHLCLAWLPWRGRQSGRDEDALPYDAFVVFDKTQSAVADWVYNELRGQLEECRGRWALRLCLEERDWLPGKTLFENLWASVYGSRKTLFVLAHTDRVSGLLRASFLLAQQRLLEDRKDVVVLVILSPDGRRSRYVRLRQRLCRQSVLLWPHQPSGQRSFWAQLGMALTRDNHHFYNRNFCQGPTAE
The experiment is described as follows: TLR9 inhibition reporter assay (HEK-Blue cells, SEAP reporter, ODN2006 stimulation). The settings on record: HEK-Blue cells overexpressing human TLR9, SEAP reporter, ODN2006 5 nM. The protocol:
as §1, §2

A value given as a limit tells only on which side of the number the result lay.

Broadly, the IC50 is the concentration needed to halve the response being measured. In the case of `Cc1c(-c2[nH]c3ccc(C4CCNCC4)cc3c2C(C)C)ccc2nccn12` [Example 111, 6-(3-isopropyl-5-(piperidin-4-yl)-1H-indol-2-yl)-5-methylimidazo[1,2-a]pyridine], the IC50 was 0.1 to 1 µM on human TLR8 and less than 0.1 µM at human TLR7.

In the case of `Cc1cn2cc(-c3[nH]c4ccc(C5CCNCC5)cc4c3CC(F)F)ccc2n1` [Example 129, 6-(3-(2,2-difluoroethyl)-5-(piperidin-4-yl)-1H-indol-2-yl)-2-methylimidazo[1,2-a]pyridine], the IC50 against human TLR7 is less than 0.1 µM; at human TLR9, 0.1 to 1 µM.

In the case of `Cc1c(-c2ccnc3[nH]nnc23)[nH]c2ccc(C3CCNCC3)cc12` [Example 233, 7-(3-methyl-5-(piperidin-4-yl)-1H-indol-2-yl)-3H-[1,2,3] triazolo[4,5-b]pyridine], the IC50 on human TLR8 and against human TLR7 was 1 to 50 µM in each case.

For the compound `COc1cc(-c2[nH]c3ccc(C4CCNCC4)cc3c2C(C)C)cn2cc(C(=O)N(C)C)nc12` [Example 263, 6-(3-isopropyl-5-(piperidin-4-yl)-1H-indol-2-yl)-8-methoxy-N,N-dimethylimidazo[1,2-a]pyridine-2-carboxamide], the IC50 on human TLR8 was less than 0.1 µM; on human TLR9 it was 1 to 50 µM.

`CNC(=O)CN1CCC(c2ccc3[nH]c(-c4ccc5nc(C)cn5c4)c(CC(F)F)c3c2)CC1` [Example 417, 2-(4-(3-(2,2-difluoroethyl)-2-(2-methylimidazo[1,2-a]pyridin-6-yl)-1H-indol-5-yl)piperidin-1-yl)-N-methylacetamide]: the figures for the IC50 on human TLR7 and on human TLR9 were less than 0.1 µM and 0.1 to 1 µM, respectively.

As to `CCc1c(-c2cccc3c2cnn3C)[nH]c2ccc(C3CCN(C(=O)CN4CCCN(C)CC4)CC3)cc12` [Example 521, 1-(4-(3-ethyl-2-(1-methyl-1H-indazol-4-yl)-1H-indol-5-yl)piperidin-1-yl)-2-(4-methyl-1,4-diazepan-1-yl)ethan-1-one], the IC50 was greater than 50 µM at human TLR8 and 1 to 50 µM on human TLR9.

For the compound `CNCC(=O)N1CCC(c2ccc3[nH]c(-c4ccc5nc(C)cn5c4)c(CC(F)F)c3c2)CC1` [Example 550, 1-(4-(3-(2,2-difluoroethyl)-2-(2-methylimidazo[1,2-a]pyridin-6-yl)-1H-indol-5-yl)piperidin-1-yl)-2-(methylamino)ethan-1-one], the results for the IC50 on human TLR7 and against human TLR9 were less than 0.1 µM and 0.1 to 1 µM, respectively.

Take `Cc1cc(-c2[nH]c3ccc(C4CCN(C(=O)C[C@H](C)O)CC4)cc3c2C(C)C)cn2nnnc12` [Example 593, (S)-3-hydroxy-1-(4-(3-isopropyl-2-(8-methyltetrazolo[1,5-a]pyridin-6-yl)-1H-indol-5-yl)piperidin-1-yl)butan-1-one]: the IC50 against human TLR8 and on human TLR7 was less than 0.1 µM throughout.

With `CNCCN1CCC(c2ccc3[nH]c(-c4cnc5ccccc5c4)c(C)c3c2)CC1` [Example 664, N-methyl-2-(4-(3-methyl-2-(quinolin-3-yl)-1H-indol-5-yl)piperidin-1-yl)ethan-1-amine], the IC50 against human TLR8 is greater than 3.13 µM; at human TLR9, 0.1 to 1 µM.

With `COc1cc(-c2[nH]c3ccc(C4CCN(CCS(C)(=O)=O)CC4)cc3c2C(C)C)cn2ccnc12` [Example 801, 6-(3-isopropyl-5-(1-(2-(methylsulfonyl)ethyl)piperidin-4-yl)-1H-indol-2-yl)-8-methoxyimidazo[1,2-a]pyridine], the IC50 was less than 0.1 µM at human TLR8 and 1 to 50 µM on human TLR9.

In the case of `Cc1c(-c2ncnc3c2cnn3C)[nH]c2ccc(C3CCN(C4CCN(C(C)C)CC4)CC3)cc12` [Example 818, 4-(5-(1′-isopropyl-[1,4′-bipiperidin]-4-yl)-3-methyl-1H-indol-2-yl)-1-methyl-1H-pyrazolo[3,4-d]pyrimidine], the values for the IC50 against human TLR8 and on human TLR9 were greater than 3.13 µM and 0.1 to 1 µM, respectively.

Turning to `COC(=O)C1CC(N2CCC(c3ccc4[nH]c(-c5ccnc6[nH]ncc56)c(C(C)C)c4c3)CC2)CCN1` (centres unmarked) [Example 825, methyl 4-(3-isopropyl-2-(1H-pyrazolo[3,4-b]pyridin-4-yl)-1H-indol-5-yl)-[1,4′-bipiperidine]-2′-carboxylate], the IC50 against human TLR8 was less than 0.1 µM; against human TLR9, 0.1 to 1 µM.

`CC(C)c1c(-c2ccnc3[nH]ncc23)[nH]c2ccc(C3CCN(Cc4ccncc4Cl)CC3)cc12` [Example 923, 4-(5-(1-((3-chloropyridin-4-yl)methyl)piperidin-4-yl)-3-isopropyl-1H-indol-2-yl)-1H-pyrazolo[3,4-b]pyridine]: the IC50 against human TLR8 and at human TLR7 was 0.1 to 1 µM throughout.
